Results from patent US6352958B1, “Cycloimido-substituted benzofused heterocyclic herbicides” (FMC Corporation, priority 1997, dated 2002).

What was measured:
Assay type in all cases: in vivo
[1] = tested on: common cocklebur (Xanthium strumarium L.); assay: Postemergence herbicidal activity, cocklebur; details: rate of application 0.3 Kg/Ha, rated after 12-17 days
Method: (§1) The benzofused heterocyclic compounds of this invention were tested for pre- and postemergence herbicidal activity using a variety of crops and weeds. The test plants included soybean (Glycine max var. Winchester), field corn (Zea mays var. Pioneer 3732), wheat (Triticum aestivum var. Lew), morningglory (Ipomea lacunosa or Ipomea hederacea), velvetleaf (Abutilon theophrasti), green foxtail (Setaria viridis), Johnsongrass (Sorghum halepense), blackgrass (Aloepecurus myosuroides), common chickweed (Stellaria media), and common cocklebur (Xanthium strumarium L.).
(§2) For preemergence testing, two disposable fiber flats (8 cm×15 cm×25 cm) for each rate of application of each candidate herbicide were filled to an approximate depth of 6.5 cm with steam-sterilized sandy loam soil. The soil was leveled and impressed with a template to provide five evenly spaced furrows 13 cm long and 0.5 cm deep in each flat. Seeds of soybean, wheat, corn, green foxtail, and johnsongrass were planted in the furrows of the first flat, and seeds of velvetleaf, morningglory, common chickweed, cocklebur, and blackgrass were planted in the furrows of the second flat. The five-row template was employed to firmly press the seeds into place. A topping soil of equal portions of sand and sandy loam soil was placed uniformly on top of each flat to a depth of approximately 0.5 cm. Flats for postemergence testing were prepared in the same manner except that they were planted 9-14 days prior to the preemergence flats and were placed in a greenhouse and watered, thus allowing the seeds to germinate and the foliage to develop.
(§3) In both pre- and postemergence tests, a stock solution of the candidate herbicide was prepared by dissolving 0.27 g of the compound in 20 mL of water/acetone (50/50) containing 0.5% v/v sorbitan monolaurate. For an application rate of 3000 g/ha of herbicide a 10 mL portion of the stock solution was diluted with water/acetone (50/50) to 45 mL.
(§4) The preemergence flats were initially subjected to a light water spray. The four flats were placed two by two along a conveyor belt (i.e., the two preemergence followed by the two postemergence flats). The conveyor belt fed under a spray nozzle mounted about ten inches above the post-emergent foliage. The preemergent flats were elevated on the belt so that the soil surface was at the same level below the spray nozzle as the foliage canopy of the postemergent plants. The spray of herbicidal solution was commenced and once stabilized, the flats were passed under the spray at a speed to receive a coverage equivalent of 100 L/ha. At this coverage the application rates are those shown in the above table for the individual herbicidal solutions. The preemergence flats were watered immediately thereafter, placed in the greenhouse and watered regularly at the soil surface. The postemergence flats were immediately placed in the green-house and not watered until 24 hours after treatment with the test solution. Thereafter they were regularly watered at ground level. After 12-17 days the plants were examined and the phytotoxicity data were recorded.
(§5) Phytotoxicity data were taken as percent control. Percent control was determined by a method similar to the 0 to 100 rating system disclosed in “Research Methods in Weed Science,” 2nd ed., B. Truelove, Ed.; Southern Weed Science Society; Auburn University, Auburn, Ala., 1977.

[2] = tested on: green foxtail (Setaria viridis); assay: Preemergence herbicidal activity, green foxtail; details: Rate of Application 0.3 Kg/Ha, examined after 12-17 days
Method: as §1, §2, §3, §4, §5

[3] = tested on: velvetleaf (Abutilon theophrasti); assay: Postemergence herbicidal activity, velvetleaf; details: rate of application 0.3 Kg/Ha, rated after 12-17 days
Method: as §1, §2, §3, §4, §5

[4] = tested on: Johnsongrass (Sorghum halepense); assay: Postemergence herbicidal activity, johnsongrass; details: rate of application 0.3 Kg/Ha, rated after 12-17 days
Method: as §1, §2, §3, §4, §5

[5] = tested on: soybean (Glycine max var. Winchester); assay: Postemergence herbicidal activity, soybean; details: rate of application 0.3 Kg/Ha, rated after 12-17 days
Method: as §1, §2, §3, §4, §5

[6] = tested on: field corn (Zea mays var. Pioneer 3732); assay: Preemergence herbicidal activity, corn; details: Rate of Application 0.3 Kg/Ha, examined after 12-17 days
Method: as §1, §2, §3, §4, §5

[7] = tested on: field corn (Zea mays var. Pioneer 3732); assay: Postemergence herbicidal activity, corn; details: rate of application 0.3 Kg/Ha, rated after 12-17 days
Method: as §1, §2, §3, §4, §5

[8] = tested on: common chickweed (Stellaria media); assay: Preemergence herbicidal activity, chickweed; details: Rate of Application 0.3 Kg/Ha, examined after 12-17 days
Method: as §1, §2, §3, §4, §5

[9] = tested on: soybean (Glycine max var. Winchester); assay: Preemergence herbicidal activity, soybean; details: Rate of Application 0.3 Kg/Ha, examined after 12-17 days
Method: as §1, §2, §3, §4, §5

[10] = tested on: common cocklebur (Xanthium strumarium L.); assay: Preemergence herbicidal activity, cocklebur; details: Rate of Application 0.3 Kg/Ha, examined after 12-17 days
Method: as §1, §2, §3, §4, §5

[11] = tested on: Johnsongrass (Sorghum halepense); assay: Preemergence herbicidal activity, johnsongrass; details: Rate of Application 0.3 Kg/Ha, examined after 12-17 days
Method: as §1, §2, §3, §4, §5

[12] = tested on: velvetleaf (Abutilon theophrasti); assay: Preemergence herbicidal activity, velvetleaf; details: Rate of Application 0.3 Kg/Ha, examined after 12-17 days
Method: as §1, §2, §3, §4, §5

[13] = tested on: morningglory (Ipomea lacunosa or Ipomea hederacea); assay: Postemergence herbicidal activity, morningglory; details: rate of application 0.3 Kg/Ha, rated after 12-17 days
Method: as §1, §2, §3, §4, §5

[14] = tested on: wheat (Triticum aestivum var. Lew); assay: Postemergence herbicidal activity, wheat; details: rate of application 0.3 Kg/Ha, rated after 12-17 days
Method: as §1, §2, §3, §4, §5

[15] = tested on: morningglory (Ipomea lacunosa or Ipomea hederacea); assay: Preemergence herbicidal activity, morningglory; details: Rate of Application 0.3 Kg/Ha, examined after 12-17 days
Method: as §1, §2, §3, §4, §5

[16] = tested on: wheat (Triticum aestivum var. Lew); assay: Preemergence herbicidal activity, wheat; details: Rate of Application 0.3 Kg/Ha, examined after 12-17 days
Method: as §1, §2, §3, §4, §5

[17] = tested on: common chickweed (Stellaria media); assay: Postemergence herbicidal activity, chickweed; details: rate of application 0.3 Kg/Ha, rated after 12-17 days
Method: as §1, §2, §3, §4, §5

[18] = tested on: green foxtail (Setaria viridis); assay: Postemergence herbicidal activity, green foxtail; details: rate of application 0.3 Kg/Ha, rated after 12-17 days
Method: as §1, §2, §3, §4, §5

Row | SMILES | Postemergence herbicidal activity (% control) XANPE [1] | PREEMERGENCE HERBICIDAL ACTIVITY (% CONTROL) SETVI [2] | Postemergence herbicidal activity (% control) ABUTH [3] | Postemergence herbicidal activity (% control) SORHA [4] | Postemergence herbicidal activity (% control) SOY [5] | PREEMERGENCE HERBICIDAL ACTIVITY (% CONTROL) CRN [6] | Postemergence herbicidal activity (% control) CRN [7] | PREEMERGENCE HERBICIDAL ACTIVITY (% CONTROL) STEME [8] | PREEMERGENCE HERBICIDAL ACTIVITY (% CONTROL) SOY [9] | PREEMERGENCE HERBICIDAL ACTIVITY (% CONTROL) XANPE [10] | PREEMERGENCE HERBICIDAL ACTIVITY (% CONTROL) SORHA [11] | PREEMERGENCE HERBICIDAL ACTIVITY (% CONTROL) ABUTH [12] | Postemergence herbicidal activity (% control) IPOSS [13] | Postemergence herbicidal activity (% control) WHT [14] | PREEMERGENCE HERBICIDAL ACTIVITY (% CONTROL) IPOSS [15] | PREEMERGENCE HERBICIDAL ACTIVITY (% CONTROL) WHT [16] | Postemergence herbicidal activity (% control) STEME [17] | Postemergence herbicidal activity (% control) SETVI [18]
1 | Cn1c(C(F)(F)F)cc(=O)n(-c2ccc(Cl)c3cc(C(Br)Br)oc23)c1=O [Compound 233] | 30% | 60% | 100% | 30% | 90% | 70% | 60% | 20% | 40% | 20% | 50% | 100% | 100% | 30% | 95% | 30% | 30% | 30%
2 | Cn1c(C(F)(F)F)cc(=O)n(-c2ccc(Cl)c3cc(C(C)(C)C)oc23)c1=O [Compound 226] | 90% | 100% | 100% | 80% | 70% | 70% | 80% | 90% | 70% | 60% | 80% | 100% | 95% | 40% | 90% | 50% | 80% | 100%
3 | CC(O)c1cc2c(Cl)cc(F)c(-n3c(=O)cc(C(F)(F)F)n(C)c3=O)c2o1 (stereo not drawn) [Compound 240] | 100% | 100% | 100% | 100% | 95% | 95% | 100% | 100% | 100% | 100% | 100% | 100% | 100% | 95% | 100% | 95% | 100% | 100%
4 | CC(O)Cc1cc2c(Cl)cc(F)c(-n3c(=O)cc(C(F)(F)F)n(C)c3=O)c2o1 (stereo not drawn) [Compound 243] | 100% | 100% | 100% | 100% | 95% | 95% | 95% | 100% | 100% | 100% | 100% | 100% | 100% | 70% | 100% | 80% | 100% | 100%
5 | Cn1c(C(F)(F)F)cc(=O)n(-c2ccc(Cl)c3cc(C(C)(C)O)oc23)c1=O [Compound 241] | 95% | 100% | 100% | 70% | 90% | 95% | 70% | 100% | 60% | 100% | 100% | 100% | 100% | 60% | 100% | 70% | 85% | 100%
6 | COC(=O)Cc1nc2c(-n3c(=O)cc(C(F)(F)F)n(C)c3=O)c(F)cc(Br)c2o1 [Compound 49] | 30% | 100% | 100% | 90% | 95% | 80% | 80% | 20% | 95% | 90% | 90% | 100% | 100% | 70% | 100% | 50% | 40% | 100%
7 | Cn1c(C(F)(F)F)cc(=O)n(-c2c(F)cc(F)c3cc(C(C)(C)C)oc23)c1=O [Compound 228] | 95% | 100% | 100% | 90% | 90% | 95% | 80% | 100% | 100% | 90% | 100% | 100% | 100% | 50% | 100% | 80% | 80% | 100%
